{"source": "patent US8835660B2", "about": "“Method for extracting organic compounds from aqueous mixtures” (The Regents of the University of California, priority 2010, dated 2014)", "key": {"[1]": {"details": "cloud-point"}, "[2]": {"details": "for AcOH in DEB / AcOH in water (final in DEB) / D = AcOH in DEB/AcOH in water / Water in DEB: 25° C., single extraction"}, "[3]": {"test": "Distribution of ethanol and isobutanol between water and DEB phases", "format": "physicochemical", "details": "for Amount of EtOH in water (final) / D = conc. of EtOH in DEB/conc. of EtOH in water / Amount of EtOH in DEB (final) / Distribution coefficient of isobutanol (DEB/water) / Amount of iBuOH in water (final) / Amount of iBuOH in DEB (final): single extraction; for Amount of EtOH in DEB (final) / Amount of iBuOH in DEB (final): mass balance", "experimental": "The amount of ethanol and isobutanol in water phase was measured using HPLC (see above for details). The concentrations of ethanol taken were: 8, 6, 3, 2, 1 and 0.5 wt %.\nDistribution coefficient is reported on the basis of HPLC results of aqueous phase and that of mass balance of both the phases. Experiments are currently underway to determine the amount of ethanol, iso butanol in DEB phase. Gas chromatography will be used to quantify the amount of ethanol and isobutanol present in the DEB phase. Water measurements will be done using a Karl Fischer apparatus.\nHere also, distribution coefficient is reported on the basis of HPLC results of aqueous phase and that of mass balance of both the phase."}, "[4]": {"test": "Distribution of hydroxymethylfurfural and furfural between water and DEB phases", "format": "physicochemical", "details": "25° C., single extraction; for Amount of furfural in DEB phase (g) (final in DEB phase) / Amount of HMF in DEB phase (g) (final in DEB phase): mass balance", "experimental": "The amounts of hydroxymethylfurfural and furfural in water phase were measured\nusing HPLC (see above for details). […] Distribution coefficient is reported on the basis of HPLC results of aqueous phase and that of mass balance of both the phases. The amount of hydroxymethylfurfural in DEB phase may be quantified using gas chromatography. Water measurements of the separated DEB phase containing hydroxymethylfurfural may be carried out using a Karl Fischer apparatus.\nDistribution coefficient is reported on the basis of HPLC results of aqueous phase and that of mass balance of both the phases. The amount of furfural in DEB phase may be quantified using gas chromatography. Water measurements of the separated DEB phase containing furfural may be carried out using a Karl Fischer apparatus."}, "[5]": {"details": "4.91 g DEB, 0.33 g AcOH initially in 4.1 g water"}, "[6]": {"details": "5.8 g DEB, 0.17 g AcOH initially in 4.2 g water"}, "[7]": {"details": "6.5 g DEB, 0.07 g AcOH initially in 4.3 g water"}, "[8]": {"details": "4.63 g DEB, 0.99 g EtOH initially in 4.62 g water"}, "[9]": {"details": "4.71 g DEB, 0.31 g EtOH initially in 4.70 g water"}, "[10]": {"details": "4.85 g DEB, 0.16 g EtOH initially in 4.86 g water"}, "[11]": {"details": "4.92 g DEB, 0.11 g EtOH initially in 4.89 g water"}, "[12]": {"details": "4.97 g DEB, 0.06 g EtOH initially in 4.98 g water"}, "[13]": {"details": "5.02 g DEB, 0.03 g EtOH initially in 5.03 g water"}, "[14]": {"details": "4.98 g DEB, 0.0491 g furfural initially in 5.01 g water"}, "[15]": {"details": "5.02 g DEB, 0.0242 g furfural initially in 4.98 g water"}, "[16]": {"details": "5.11 g DEB, 0.0141 g furfural initially in 5.05 g water"}, "[17]": {"details": "5.01 g DEB, 0.0132 g HMF initially in 5.01 g water"}, "[18]": {"details": "5.01 g DEB, 0.0512 g HMF initially in 5.11 g water"}, "[19]": {"details": "5.02 g DEB, 0.0251 g HMF initially in 5.03 g water"}, "[20]": {"details": "4.76 g DEB, 0.26 g iBuOH initially in 4.74 g water"}, "[21]": {"details": "4.88 g DEB, 0.13 g iBuOH initially in 4.89 g water"}, "[22]": {"details": "4.93 g DEB, 0.071 g iBuOH initially in 4.92 g water"}, "[23]": {"details": "5.08 g DEB, 0.028 g iBuOH initially in 5.03 g water"}}, "note": "Read-outs that look alike come from different tables or passages of the source."}
{"compound": "CCCCOCCOCCOCCCC", "note": "[DEB, diethylene glycol dibutyl ether]", "values": [{"measurement": "DEB solubility in water", "setting": "[1]", "result": "less than 10 ppm"}]}
{"compound": "CC(=O)O", "note": "[acetic acid]", "values": [{"measurement": "AcOH in DEB", "setting": "[2]; [5]", "result": 0.171, "unit": "grams"}, {"measurement": "AcOH in water (final in DEB)", "setting": "[2]; [5]", "result": 0.163, "unit": "grams"}, {"measurement": "D = AcOH in DEB/AcOH in water", "setting": "[2]; [5]", "result": 1.1}, {"measurement": "AcOH in DEB", "setting": "[2]; [6]", "result": 0.088, "unit": "grams"}, {"measurement": "AcOH in water (final in DEB)", "setting": "[2]; [6]", "result": 0.082, "unit": "grams"}, {"measurement": "D = AcOH in DEB/AcOH in water", "setting": "[2]; [6]", "result": 1.08}, {"measurement": "AcOH in DEB", "setting": "[2]; [7]", "result": 0.033, "unit": "grams"}, {"measurement": "AcOH in water (final in DEB)", "setting": "[2]; [7]", "result": 0.034, "unit": "grams"}, {"measurement": "D = AcOH in DEB/AcOH in water", "setting": "[2]; [7]", "result": 0.98}]}
{"compound": "CCO", "note": "[ethanol]", "values": [{"measurement": "Amount of EtOH in water (final)", "setting": "[3]; [8]", "result": 0.51, "unit": "grams"}, {"measurement": "D = conc. of EtOH in DEB/conc. of EtOH in water", "setting": "[3]; [8]", "result": 0.94}, {"measurement": "Amount of EtOH in DEB (final)", "setting": "[3]; [8]", "result": 0.48, "unit": "grams"}, {"measurement": "Amount of EtOH in water (final)", "setting": "[3]; [9]", "result": 0.15, "unit": "grams"}, {"measurement": "D = conc. of EtOH in DEB/conc. of EtOH in water", "setting": "[3]; [9]", "result": 1.06}, {"measurement": "Amount of EtOH in DEB (final)", "setting": "[3]; [9]", "result": 0.16, "unit": "grams"}, {"measurement": "Amount of EtOH in water (final)", "setting": "[3]; [10]", "result": 0.073, "unit": "grams"}, {"measurement": "D = conc. of EtOH in DEB/conc. of EtOH in water", "setting": "[3]; [10]", "result": 1.2}, {"measurement": "Amount of EtOH in DEB (final)", "setting": "[3]; [10]", "result": 0.087, "unit": "grams"}, {"measurement": "Amount of EtOH in water (final)", "setting": "[3]; [11]", "result": 0.052, "unit": "grams"}, {"measurement": "D = conc. of EtOH in DEB/conc. of EtOH in water", "setting": "[3]; [11]", "result": 1.11}, {"measurement": "Amount of EtOH in DEB (final)", "setting": "[3]; [11]", "result": 0.058, "unit": "grams"}, {"measurement": "Amount of EtOH in water (final)", "setting": "[3]; [12]", "result": 0.031, "unit": "grams"}, {"measurement": "D = conc. of EtOH in DEB/conc. of EtOH in water", "setting": "[3]; [12]", "result": 0.93}, {"measurement": "Amount of EtOH in DEB (final)", "setting": "[3]; [12]", "result": 0.029, "unit": "grams"}, {"measurement": "Amount of EtOH in water (final)", "setting": "[3]; [13]", "result": 0.014, "unit": "grams"}, {"measurement": "D = conc. of EtOH in DEB/conc. of EtOH in water", "setting": "[3]; [13]", "result": 1.16}, {"measurement": "Amount of EtOH in DEB (final)", "setting": "[3]; [13]", "result": 0.016, "unit": "grams"}]}
{"compound": "O=Cc1ccco1", "note": "[furfural]", "values": [{"measurement": "Amount of furfural in water phase (g) (final)", "setting": "[4]; [14]", "result": 0.0249, "unit": "g"}, {"measurement": "D = conc. of furfural in DEB/conc. of furfural in water", "setting": "[4]; [14]", "result": 0.98}, {"measurement": "Amount of furfural in DEB phase (g) (final in DEB phase)", "setting": "[4]; [14]", "result": 0.0242, "unit": "g"}, {"measurement": "Amount of furfural in water phase (g) (final)", "setting": "[4]; [15]", "result": 0.0161, "unit": "g"}, {"measurement": "D = conc. of furfural in DEB/conc. of furfural in water", "setting": "[4]; [15]", "result": 0.91}, {"measurement": "Amount of furfural in DEB phase (g) (final in DEB phase)", "setting": "[4]; [15]", "result": 0.0088, "unit": "g"}, {"measurement": "Amount of furfural in water phase (g) (final)", "setting": "[4]; [16]", "result": 0.0069, "unit": "g"}, {"measurement": "D = conc. of furfural in DEB/conc. of furfural in water", "setting": "[4]; [16]", "result": 1.03}, {"measurement": "Amount of furfural in DEB phase (g) (final in DEB phase)", "setting": "[4]; [16]", "result": 0.0071, "unit": "g"}]}
{"compound": "O=Cc1ccc(CO)o1", "note": "[hydroxymethylfurfural]", "values": [{"measurement": "Amount of HMF in water phase (g) (final)", "setting": "[4]; [17]", "result": 0.0083, "unit": "g"}, {"measurement": "D = conc. of HMF in DEB/conc. of HMF in water", "setting": "[4]; [17]", "result": 0.61}, {"measurement": "Amount of HMF in DEB phase (g) (final in DEB phase)", "setting": "[4]; [17]", "result": 0.0050, "unit": "g"}, {"measurement": "Amount of HMF in water phase (g) (final)", "setting": "[4]; [18]", "result": 0.0321, "unit": "g"}, {"measurement": "D = conc. of HMF in DEB/conc. of HMF in water", "setting": "[4]; [18]", "result": 0.59}, {"measurement": "Amount of HMF in DEB phase (g) (final in DEB phase)", "setting": "[4]; [18]", "result": 0.0191, "unit": "g"}, {"measurement": "Amount of HMF in water phase (g) (final)", "setting": "[4]; [19]", "result": 0.0161, "unit": "g"}, {"measurement": "D = conc. of HMF in DEB/conc. of HMF in water", "setting": "[4]; [19]", "result": 0.54}, {"measurement": "Amount of HMF in DEB phase (g) (final in DEB phase)", "setting": "[4]; [19]", "result": 0.0088, "unit": "g"}]}
{"compound": "CC(C)CO", "note": "[isobutanol]", "values": [{"measurement": "measured distribution coefficients", "setting": "[3]; 5, 3, 2, and 1 wt % of isobutanol", "result": "2.5-3.5"}, {"measurement": "concentration in DEB relative to concentration in water at equilibrium", "setting": "[3]; DEB and water phases in equilibrium", "result": "2-3 times"}, {"measurement": "Distribution coefficient of isobutanol (DEB/water)", "setting": "[3]; [20]", "result": 2.71}, {"measurement": "Distribution coefficient of isobutanol (DEB/water)", "setting": "[3]; [21]", "result": 3.33}, {"measurement": "Distribution coefficient of isobutanol (DEB/water)", "setting": "[3]; [22]", "result": 2.72}, {"measurement": "Distribution coefficient of isobutanol (DEB/water)", "setting": "[3]; [23]", "result": 3.59}, {"measurement": "Amount of iBuOH in water (final)", "setting": "[3]; [20]", "result": 0.07, "unit": "grams"}, {"measurement": "Amount of iBuOH in DEB (final)", "setting": "[3]; [20]", "result": 0.19, "unit": "grams"}, {"measurement": "Amount of iBuOH in water (final)", "setting": "[3]; [21]", "result": 0.03, "unit": "grams"}, {"measurement": "Amount of iBuOH in DEB (final)", "setting": "[3]; [21]", "result": 0.10, "unit": "grams"}, {"measurement": "Amount of iBuOH in water (final)", "setting": "[3]; [22]", "result": 0.018, "unit": "grams"}, {"measurement": "Amount of iBuOH in DEB (final)", "setting": "[3]; [22]", "result": 0.053, "unit": "grams"}, {"measurement": "Amount of iBuOH in water (final)", "setting": "[3]; [23]", "result": 0.0061, "unit": "grams"}, {"measurement": "Amount of iBuOH in DEB (final)", "setting": "[3]; [23]", "result": 0.0219, "unit": "grams"}]}
{"compound": "water", "values": [{"measurement": "Water in DEB", "setting": "[2]; [5]", "result": 300, "unit": "µg"}, {"measurement": "Water in DEB", "setting": "[2]; [6]", "result": 100, "unit": "µg"}, {"measurement": "Water in DEB", "setting": "[2]; [7]", "result": 90, "unit": "µg"}, {"measurement": "water content in the DEB phase", "setting": "[2]; after contact experiment with acetic acid solutions", "result": "less than 300 ppm"}]}
